We go through one substance from patent publication US20210038668A1, “TRADITIONAL CHINESE MEDICINE COMPOSITION FOR PREVENTING AND/OR TREATING ISCHEMIC REPERFUSION INJURY” (TASLY PHARMACEUTICAL GROUP CO., LTD., priority 2018, published 2021).

Assay type in all cases: in vivo, C57BL/6 mice
One experiment relates to mitochondrial complex IV. Put plainly: Mitochondrial complex IV activity in brain tissue. Particulars: brain tissue 24 hours after administration; tPA 10 mg/kg alone or + T541 20 mg/kg or ingredients at Table 7 doses. The text has this: To compare the therapeutical effect on reperfusion injury caused by tPA thrombolysis between the traditional Chinese medicinal composition of the present invention and each ingredient (total saponins of Astragalus, the experiment was divided into the following group (tPA is combined with T541, individual ingredient thereof and compatibility of any two ingredients) specifically as follows: tPA+total saponins of Astragalus (tPA+HQ), tPA+ salvianolic acids (tPA+DS), tPA+Panax notoginseng saponins (tPA+SQ), tPA+ total saponins of Astragalus+salvianolic acids (tPA+HQ+DS), tPA+ total saponins of Astragalus+Panax notoginseng saponins (tPA+HQ+SQ), tPA+ salvianolic acids+Panax notoginseng saponins (tPA+DS+SQ) and tPA+T541. Normal saline served as an isovolumetric control. The usage number in each group is 6.
ELISA adsorption kit was used to measure the change on the content of MDA, 8-hydroxyl-2′-deoxyguanosine (8-OHdG), adenosine triphosphate (ATP), adenosine diphosphate (ADP) and adenosine monophosphate (AMP) in the penumbra field of brain tissue cortex of the mode, and the change on the activity of mitochondrial complexes I, II, IV and V. 6 samples were used to repeat the independent experiment for at least three times for each group of data.

Experiment [1] has as its system cerebral cortex microvessels. Put plainly: Opening number of cerebral cortex microvessels by SEM. Particulars: 24 h after administration; tPA 10 mg/kg alone; T541 20 mg/kg + tPA 10 mg/kg. Here is the method:
Scanning electron microscope (SEM): after reperfused for 24 hours, anesthetized mice were perfused 3% glutaraldehyde for 40 minutes via ventriculus sinister at a rate of 3 ml/min; the brain was taken, and the right cortical penumbra was cut off and immobilized in glutaraldehyde for 2 hours. After washed by a PBS phosphate buffer, mice were immobilized in 1% osmium tetroxide for 2 hours; a proper section was taken and fixed on a metal support. Tissue blocks were plated gold, observed and shoot by an SEM (JSM-5600LV, JEOL, Tokyo, Japan).
5 500-fold visual fields were randomly selected for each mouse under SEM to count the opening number of cerebral cortex microvessels in right hemisphere penumbra. N=3. (See lines 3 and 4 of FIG. 7)

A further experiment concerns cerebral infarction. Put plainly: TTC infarct size, mice after thrombolysis. Particulars: 24 h after administration, tPA 10 mg/kg alone, T541 20 mg/kg + tPA 10 mg/kg. Here is the method:
After reperfused for 24 hours, mice were perfused via heart by a PBS buffer precooled at 4° C. and separated brain via craniotomy; the brain was cut from front to back into 5 slices in a brain stereotaxic apparatus; bleeding condition was rapidly shoot in cold condition; then slices were put into 2% triphenyltetrazolium chloride, TTC for incubation for 15 minutes at […]; TTC staining was conducted. Non-infarct region was stained red and infarct region was not stained and still white. Brain TTC staining images were shoot and IamgeJ (Bethesda, Md., USA) was used to calculate a percentage of TTC staining infarct size in the total area of brain, and evaluate the degree of cerebral infarction.

A further experiment concerns Occludin. In words: Western blotting of Occludin, cortex of ischemic penumbra. Particulars: brain tissue 24 hours after administration, sham = 1.00; tPA 10 mg/kg alone; T541 20 mg/kg + tPA 10 mg/kg. Here is the method: After reperfused for 24 hours, mice were perfused by normal saline; Western blotting analysis was conducted to the penumbra field of infarcted right cerebral cortex. After perfused, mice brain tissue was taken out; cerebellum and prefrontal lobe were cut off; the brain tissue of right brain close to 1 cm of the central joint of left and right hemispheres along the sagittal view; infarcted penumbra field of the rest tissues was cut off along an 45° angle; the cerebral cortex of the penumbra field was peeled off and preserved at low temperature. Right cerebral cortex was taken and added 1×RIPA lysate and a Cocktail protease inhibitor (1:100, Cell Signaling Technology, US) for full pyrolysis and ultrasonic treatment, and then 17000 g were centrifuged for 30 minutes. Supernatant was taken and added 5×loading buffer by volume, boiled for 20 minutes in boiling water, and then preserved at −80° C. Excessive supernatant was taken out and quantified by a BCA protein quantification liquor (ThermoScientific, US) to measure absorbance value at 560 nm of ELIASA and to calculate the protein concentration according to a standard curve. […] The density of electrophoretic strips was analyzed by an image analysis software Quantityone. […]

On to “tPA: tissue-type plasminogen activator (tPA) for thrombolysis”, for which the “Complex IV activity” value in the experiment with mitochondrial complex IV came out at 0.267 ± 0.016. In addition, in experiment [1], the “Opening number of microvessels” value worked out at 21.07 ± 1.54. For the same substance, the Infarct size in the experiment with cerebral infarction is reported as 15.68 ± 4.81. The Occludin/β-actin in the experiment on Occludin stood at 0.38 ± 0.02.
